The values below come from publication PMC4949533, “Optimization of Inhibitors of Mycobacterium tuberculosis Pantothenate Synthetase Based on Group Efficiency Analysis” (Chemmedchem, 2015).

The structures appear in SMILES notation.

For orientation: IC50 means the concentration that inhibits the measured activity by half.

T1 sequence (P9WIL4 2-309 limits assumed): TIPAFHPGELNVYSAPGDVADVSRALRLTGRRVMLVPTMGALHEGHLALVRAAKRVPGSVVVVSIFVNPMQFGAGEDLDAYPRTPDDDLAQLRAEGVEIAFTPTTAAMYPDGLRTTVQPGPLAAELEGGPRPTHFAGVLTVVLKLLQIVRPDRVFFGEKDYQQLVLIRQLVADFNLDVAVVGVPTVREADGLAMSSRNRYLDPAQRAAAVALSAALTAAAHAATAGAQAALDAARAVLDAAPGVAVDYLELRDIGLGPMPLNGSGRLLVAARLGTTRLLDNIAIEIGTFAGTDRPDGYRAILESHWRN

The first assay has as its target T1, Mycobacterium tuberculosis pantothenate synthetase (Mycobacterium tuberculosis, UniProt P9WIL4).
T1 construct: gene panC
The assay is described as follows: isothermal titration calorimetry (ITC). The following applies: active site; lead compound of the group's earlier work; read-out: K D [μM]^[a]; cited from earlier work. It is filed as binding. An excerpt: isothermal titration calorimetry (ITC) on Mycobacterium tuberculosis pantothenate synthetase
In the case of `COc1ccc2c(c1)cc(C(=O)NS(=O)(=O)c1ccc(C)cn1)n2CC(=O)O` [compound 5, 5], the Kd was 1.5 µM.

The assay is the same for the next values; noted with them: read-out: K D [μM]^[a].
As to `COc1ccc2c(c1)cc(C(=O)NS(=O)(=O)c1ccc(C)cc1)n2CC(=O)O` [compound 10, 10], the Kd is 0.34 µM.
On the same count and under the same terms, the result for `COc1ccc2c(c1)cc(C(=O)NS(=O)(=O)c1ccc(C(F)(F)F)cc1)n2CC(=O)O` [compound 11, 11] reads 0.2 µM.
The same measure, in the same setting: the result for `COc1ccc2c(c1)cc(C(=O)NS(=O)(=O)c1ccc(C(C)(C)C)cc1)n2CC(=O)O` [compound 12, 12] reads 0.46 µM.
With `COc1ccc2c(c1)cc(C(=O)NS(=O)(=O)c1ccc3ccccc3c1)n2CC(=O)O` [compound 13, 13], the Kd is 0.61 µM.
With `COc1ccc2c(c1)cc(C(=O)NS(=O)(=O)c1ccc(C(F)(F)F)cc1[N+](=O)[O-])n2CC(=O)O` [compound 14, 14], the Kd was determined as 0.8 µM.
Regarding `COc1ccc2c(c1)cc(C(=O)NS(=O)(=O)N1CCOCC1)n2CC(=O)O` [compound 15, 15], the Kd is 3.5 µM.
Consider `COc1ccc2c(c1)cc(C(=O)NS(=O)(=O)N1CCN(C(C)=O)CC1)n2CC(=O)O` [compound 16, 16], for which the Kd is 17 µM.
The same measure, in the same setting: the result for `COc1ccc2c(c1)cc(C(=O)NS(=O)(=O)c1ccc(NC(C)=O)cc1)n2CC(=O)O` [compound 18, 18] reads 6 µM.
On the same count and under the same terms, the value for `COc1ccc(S(=O)(=O)NC(=O)c2cc3cc(OC)ccc3n2CC(=O)O)cc1` [compound 19, 19] was 2 µM.

The target in the next assay is T1, Mycobacterium tuberculosis pantothenate synthetase. The assay is described as follows: enzyme inhibition assay. It is filed as biochemical.
Settings: not given
As to `COc1ccc2c(c1)cc(C(=O)NS(=O)(=O)c1ccc(C(F)(F)F)cc1)n2CC(=O)O` [compound 11, 11], half-maximal inhibition (IC50) was put at 5700 nM.
In turn, `COc1ccc2c(c1)cc(C(=O)NS(=O)(=O)Cc1ccc(C(F)(F)F)cc1)n2CC(=O)O` [compound 20, 20] returned a half-maximal inhibitory concentration (IC50) of 253 nM.
